Experimental findings from patent US20090087894A1, “Method for improving enzymatic activity of glycosyltransferases” (Japan Tobacco Inc., priority 2004, published 2009) are described below.

Series [1] concerns glycosyltransferase (crude α2,6-sialyltransferase) of P. damsela ATCC35083. Kind of series: Effect of NaCl on activity of crude α2,6-sialyltransferase from P. damselae ATCC35083. It counts as biochemical, Photobacterium damselae. The procedure:
(§1) ATCC33539T and ATCC35083, which were strains belonging to Photobacterium damselae but different from JT0160, were cultured and the resulting cells were used to prepare crude enzyme solutions according to the procedure for preparing a crude enzyme solution of P. damselae JT0160 (Purification and characterization of a Marine bacterial β-Galactoside α2,6-Sialyltransferase from Photobacterium damselae JT0160 J. Biochem. 120, 104-110, 1996). These crude enzymes were used in the following experiment.
(§2) The enzyme reaction was accomplished in 20 μl reaction solution containing CMP-^14C-NeuAc as a glycosyl donor substrate (50.066 nmol, 25000 cpm), lactose as a glycosyl acceptor substrate (1 mmol), glycosyltransferase derived from various strains (1 mU or less) and NaCl at a concentration of 0.5 M (30° C., 1 minute). After completion of the enzymatic reaction, the radioactivity of NeuAc which was transferred to lactose under the respective conditions was measured to calculate the enzyme activity, thereby studying the effect of NaCl on the enzyme activity in each test range. More specifically, after completion of the reaction, each reaction solution was supplemented with 1.98 ml of 5 mM phosphate buffer (pH 6.8) and applied to a AG1−×2Resin (PO4^3− form, 0.2×2 cm) column. […] The eluate (0 to 2 ml) from this column was measured for its radioactivity.

For series [2], the system named is glycosyltransferase (crude α2,6-sialyltransferase) of P. damsela ATCC33539. Kind of series: Effect of NaCl on activity of crude α2,6-sialyltransferase from P. damselae ATCC33539. It counts as biochemical, Photobacterium damselae. The protocol: as §1, §2
Series [3] concerns the target T1, deletion mutant of recombinant α2,6-sialyltransferase; N2C1, derived from P. damselae JT0160 (Photobacterium damselae, UniProt O66375).
T1 construct: lacks the N-terminal (Met) 107 amino acid residues and the C-terminal 176 amino acid residues; made in house; host or cells: E. coli, crude enzyme solution
Kind of series: Effect of NaCl on enzyme activity of deletion mutant of recombinant α2,6-sialyltransferase N2C1. Type of series: biochemical. As to conditions: 0.2 to 1.5 M NaCl in the reaction solution; FIG. 4. The protocol: The transformed E. coli cells were cultured at 30° C. at 180 rpm for 12 hours in L Broth (containing ampicillin at a final concentration of 0.2 mg/ml and IPTG at a final concentration of 1 mM), followed by centrifugation to collect the cells. The collected cells were suspended in 20 mM sodium cacodyrate buffer (pH 5.0) and then ultrasonicated at 4° C. to homogenize the cells, thereby preparing a crude enzyme solution containing a sialyltransferase protein from the N2C1 gene. […] This N2C1 gene-derived sialyltransferase protein was used in the following experiment.
The enzyme reaction was accomplished in 20 μl reaction solution containing CMP-^14C-NeuAc as a glycosyl donor substrate (50.066 nmol, 25000 cpm), lactose as a glycosyl acceptor substrate (1 mmol), N2C1 (0.5 to 1.5 mU) and NaCl at a concentration varying from 0 to 2.5 M (30° C., 1 minute). After completion of the enzyme reaction, the radioactivity of NeuAc which was transferred to lactose under the respective conditions was measured to calculate the enzyme activity, thereby studying the effect of NaCl on the enzyme activity in each test range.
More specifically, after completion of the reaction, each reaction solution was supplemented with 1.98 ml of 5 mM phosphate buffer (pH 6.8) and applied to a AG1−×2Resin (PO43-form, 0.2×2 cm) column. […] The eluate (0 to 2 ml) from this column was measured for its radioactivity.

Series [4] is described as follows: Confirmation of α2,3-sialyltransferase activity with pyridylaminated lactose as glycosyl acceptor, HPLC. Type of series: biochemical. As to conditions: pyridylaminated lactose and CMP-sialic acid, 25° C. From the text: Determination of the binding mode of sialic acid was accomplished by using a pyridylaminated sugar chain. The resulting enzyme was used to carry out an enzymatic reaction in the presence of a pyridylaminated sugar chain as a glycosyl acceptor substrate. The pyridylaminated sugar chain used for analysis was pyridylaminated lactose (Galβ1, 4Glc-PA, PA-Sugar Chain 026, Takara Bio Inc., Japan). As a standard, pyridylaminated α2,3sialyllactose (NeuAcα2,3Galβ1, 4Glc-PA, PA-Sugar Chain 029, Takara Bio Inc., Japan) was used. The glycosyl acceptor substrate, CMP-NeuAc and the enzyme were dissolved at 2.0 mM, 5.7 μM and about 20 mU/ml, respectively, in 25 μl of 20 mM cacodylate buffer (pH 6.0) or Bis-Tris buffer (pH 6.0), and then reacted at 25° C. for 3 to 18 hours. After completion of the reaction, the reaction solution was treated at 100° C. for 2 minutes to deactivate the enzyme, followed by HPLC to analyze the reaction product.
The HPLC system used was, Shimadzu LC10A (Shimadzu Corporation, Japan) and the analytical column used was Takara PALPAK Type R (Takara Bio Inc., Japan). The column which had been equilibrated with 100 mM acetate-triethylamine (pH 5.0) containing 0.15% N-butanol was injected with the reaction solution diluted with Eluent A (100 mM acetate-triethylamine, pH 5.0). For elution of the pyridylaminated sugar chain, Eluent A (100 mM acetate-triethylamine, pH 5.0) and Eluent B (100 mM acetate-triethylamine containing 0.5% n-butanol, pH 5.0) were used to successively elute the pyridylaminated sugar chain with a linear gradient of 30% to 100% Eluent B (0 to 35 minutes) and then 100% Eluent B (35 to 50 minutes). The analysis was performed under the following conditions: flow rate: 1 ml/min, column temperature: 40° C., detection: fluorescence (Ex: 320 nm, Em: 400 nm).
As in the case of Reference Example 1-1, pyridylaminated lactose was used as a glycosyl acceptor to carry out the enzyme reaction. After completion of the reaction, the reaction solution was thermally treated at 95° C. for 5 minutes to deactivate the enzyme, followed by HPLC analysis. It should be noted that the enzyme reaction was accomplished at 25° C. for 6 hours using pyridylaminated lactose and CMP-sialic acid dissolved at 2.0 μM and 5.7 μM, respectively, in 25 μl of 20 mM cacodylate buffer (pH 6.0) (Reaction 1). On the other hand, a control experiment (Reaction 2) was carried out using a reaction solution free from CMP-sialic acid. Further, to clarify the retention time of standards, the crude enzyme solution was deactivated by thermal treatment (95° C., 5 minutes) and tested in the presence of pyridylaminated lactose and pyridylaminated α2,3-sialyllactose.

T1 sequence (O66375 entry or part of it, stated change not applied): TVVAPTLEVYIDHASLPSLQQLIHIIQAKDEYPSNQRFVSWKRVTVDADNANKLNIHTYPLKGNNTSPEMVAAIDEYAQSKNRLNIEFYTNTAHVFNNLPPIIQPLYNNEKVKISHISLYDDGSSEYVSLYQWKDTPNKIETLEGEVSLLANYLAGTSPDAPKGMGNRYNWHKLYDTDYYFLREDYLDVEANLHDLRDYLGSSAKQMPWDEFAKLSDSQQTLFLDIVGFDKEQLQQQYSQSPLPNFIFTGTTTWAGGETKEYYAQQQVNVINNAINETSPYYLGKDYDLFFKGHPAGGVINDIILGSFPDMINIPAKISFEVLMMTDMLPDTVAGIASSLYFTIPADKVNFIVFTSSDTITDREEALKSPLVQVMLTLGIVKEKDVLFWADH

For the molecule `[Cl-].[Na+]` [NaCl], the Radioactivity in series [1] (+NaCl, 0.5 M, 30° C., 1 minute) was found to be 9733; in series [2] (+NaCl, 0.5 M, 30° C., 1 minute), 11071. In addition, the figures for the “+NaCl/−NaCl” value in series [1] (NaCl 0.5 M) and in series [2] (NaCl 0.5 M) were 1.3 and 1.2, respectively. Besides, in series [3], the “enzyme activity compared to the absence of NaCl” value is listed as “activated”.

B1: FAJ-N0C0: recombinant full-length α2,3-sialyltransferase of Vibrio sp. JT-FAJ-16 expressed in E. coli (protein)
chain: MKNIITKRMLIILSSLFTIIGCNNDNSTTTNNNAIEIYVDRATLPTIQQMTKIVSQKTSNKKLISWSRYPITDKSLLKKINAEFFKEQFELTESLKNIILSENIDNLIIHGNTLWSIDVVDIIKEVNLLGKNIPIELHFYDDGSAEYVRIYEFSKLPESEQKYKTSLSKNNIKFSIDGTDSFKNTIENIYGFSQLYPTTYHMLRADIFDTTLKINPLRELLSNNIKQMKWDYFKDFNYKQKDIFYSLTNFNPKEIQEDFNKNSNKNFIFIGSNSATATAEEQINIISEAKKENSSIITNSISDYDLFFKGHPSATFNEQIINAHDMIEINNKIPFEALIMTGILPDAVGGMGSSVFFSIPKEVKNKFVFYKSGTDIENNSLIQVMLKLNLINRDNIKLISDI
modifications: OTHER INFORMATION: /gene=“FAJ16-23ST” /product=“beta-galactoside-alpha2,3-sialyltransferase”
notes: recombinant full-length α2,3-sialyltransferase of Vibrio sp; JT-FAJ-16 expressed in E. coli
B1: the “α2,3-sialyltransferase activity (formation of pyridylaminated α2,3-sialyllactose)” value (from here on “α2,3-sialyltransferase activity”) in series [4] is on record as “a peak of pyridylaminated α2,3-sialyllactose was detected”.

B2: 224-N1C0: recombinant JT-ISH-224 α2,3-sialyltransferase lacking the signal peptide region, expressed in E. coli (protein)
chain: MLVFCKKMFFSVFISLMILGGCNSDSNHNNSDGNITKNKTIEVYVDRATLPTIQQMTQIINENSNNKKLISWSRYPINDEELLESINGSFFKNNSELIKSLDSMILTNDIKKVIINGNTLWAADVVNIIKSIEAFGKKTEIELNFYDDGSAEYVRLYDFSKLPESEQEYKISLSKDNILSSINGTQPFENVVENIYGFSQLYPTTYHMLRADIFETNLPLRSLKGVLSNNIKQMKWDYFKTFNSQQKDKFYNFTGFNPDEIMEQYKASPNKNFIFVGTNSGTATAEQQIDILTEAKNPNSPIITKSIQGFDLFFKGHPSATYNKQIIDAHNMIEIYNKIPFEALIMTDALPDAVGGMGSSVFFSLPNTVENKFIFYKSDTDIENNALIQVMIELNIVNRNDVKLISDLQ
modifications: OTHER INFORMATION: /gene=“224-23ST” /product=“beta-galactoside-alpha-2,3-sialyltransferase”
notes: recombinant JT-ISH-224 α2,3-sialyltransferase lacking the signal peptide region, expressed in E. coli
For B2, the “α2,3-sialyltransferase activity” value in series [4] is recorded as “a peak of pyridylaminated α2,3-sialyllactose was detected”.

B3: 467-N2C0: recombinant JT-ISH-467 α2,3-sialyltransferase lacking the signal peptide region, expressed in E. coli (protein)
chain: MFVFCKKIFFLIFISLMILGGCNSDSKHNNSDGNITKNKTIEVYVDRATLPTIQQMTQIINENSNNKKLISWSRYPINDETLLESINGSFFKNRPELIKSLDSMILTNEIKKVIINGNTLWAVDVVNIIKSIEALGKKTEIELNFYDDGSAEYVRLYDFSRLPESEQEYKISLSKDNIQSSINGTQPFDNSIENIYGFSQLYPTTYHMLRADIFETNLPLTSLKRVISNNIKQMKWDYFTTFNSQQKNKFYNFTGFNPEKIKEQYKASPHENFIFIGTNSGTATAEQQIDILTEAKKPDSPIITNSIQGLDLFFKGHPSATYNQQIIDAHNMIEIYNKIPFEALIMTDALPDAVGGMGSSVFFSLPNTVENKFIFYKSDTDIENNALIQVMIELNIVNRNDVKLISDLQ
modifications: OTHER INFORMATION: /gene=“467-23ST” /product=“beta-galactoside-alpha2,3-sialyltransferase”
notes: recombinant JT-ISH-467 α2,3-sialyltransferase lacking the signal peptide region, expressed in E. coli
As to B3, the “α2,3-sialyltransferase activity” value in series [4] is recorded as “had α2,3-sialyltransferase activity”.

B4: 467-N0C0: recombinant full-length α2,3-sialyltransferase of Photobacterium phosphoreum JT-ISH-467 expressed in E. coli (protein)
chain: MFVFCKKIFFLIFISLMILGGCNSDSKHNNSDGNITKNKTIEVYVDRATLPTIQQMTQIINENSNNKKLISWSRYPINDETLLESINGSFFKNRPELIKSLDSMILTNEIKKVIINGNTLWAVDVVNIIKSIEALGKKTEIELNFYDDGSAEYVRLYDFSRLPESEQEYKISLSKDNIQSSINGTQPFDNSIENIYGFSQLYPTTYHMLRADIFETNLPLTSLKRVISNNIKQMKWDYFTTFNSQQKNKFYNFTGFNPEKIKEQYKASPHENFIFIGTNSGTATAEQQIDILTEAKKPDSPIITNSIQGLDLFFKGHPSATYNQQIIDAHNMIEIYNKIPFEALIMTDALPDAVGGMGSSVFFSLPNTVENKFIFYKSDTDIENNALIQVMIELNIVNRNDVKLISDLQ
modifications: OTHER INFORMATION: /gene=“467-23ST” /product=“beta-galactoside-alpha2,3-sialyltransferase”
notes: recombinant full-length α2,3-sialyltransferase of Photobacterium phosphoreum JT-ISH-467 expressed in E. coli
Turning to B4, in series [4], the “α2,3-sialyltransferase activity” value is recorded as “found to have α2,3-sialyltransferase activity”.
